Assay results reported in PubChem BioAssay AID1259411 (Chemical Carcinogenesis Research Information System (CCRIS), 2018).
Calls of active or inactive are those of the source. The rule behind the calls is not given here.

System: rodent carcinogenicity bioassays, tumor incidence
Assay: CCRIS carcinogenicity studies
How it was run: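 Archive of carcinogenicity, mutagenicity, tumor promotion and tumor inhibition results drawn from journals, NCI reports and other sources, expert-reviewed; covers 1985-2011 and is no longer updated.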

Nc1c(Br)cc(Br)c2c1C(=O)c1ccccc1C2=O
carcinogen call (Species: MOUSE, Strain/Sex: B6C3F1/FEMALE, Route: ORAL, Dose: 0, 10000, 20000 PPM IN DIET FOR 104 WK (STUDY DURATION: 106 WK), Dose: 0, 10000, 20000 PPM IN DIET FOR 104 WK (STUDY DURATION: 106 WK), Tumor Site: Type of Lesion: LIVER: HEPATOCELLULAR ADENOMA, HEPATOCELLULAR CARCINOMA, FORESTOMACH: SQUAMOUS CELL ADENOMA, SQUAMOUS CELL CARCINOMA, LU, Tumor Site: Type of Lesion: LIVER: HEPATOCELLULAR ADENOMA, HEPATOCELLULAR CARCINOMA, FORESTOMACH: SQUAMOUS CELL ADENOMA, SQUAMOUS CELL CARCINOMA, LU): active; positive
carcinogen call (Species: MOUSE, Strain/Sex: B6C3F1/MALE, Route: ORAL, Dose: 0, 10000, 20000 PPM IN DIET FOR 104 WK (STUDY DURATION: 106 WK), Dose: 0, 10000, 20000 PPM IN DIET FOR 104 WK (STUDY DURATION: 106 WK), Tumor Site: Type of Lesion: LIVER: HEPATOCELLULAR ADENOMA, HEPATOCELLULAR CARCINOMA, HEPATOBLASTOMA, FORESTOMACH: SQUAMOUS CELL PAPILLOMA, SQUAMOUS): active; positive
carcinogen call (Species: RAT, Strain/Sex: F344/FEMALE, Route: ORAL, Dose: 0, 2000, 5000, 10000 PPM IN DIET FOR UP TO 104 WK (STUDY DURATION: 106 WK), Dose: 0, 2000, 5000, 10000 PPM IN DIET FOR UP TO 104 WK (STUDY DURATION: 106 WK), Tumor Site: Type of Lesion: LIVER: HEPATOCELLULAR ADENOMA, HEPATOCELLULAR CARCINOMA, HEPATOCHOLANGIOCARCINOMA, LARGE INTESTINE: ADENOMA, CARCINOMA;, Tumor Site: Type of Lesion: LIVER: HEPATOCELLULAR ADENOMA, HEPATOCELLULAR CARCINOMA, HEPATOCHOLANGIOCARCINOMA, LARGE INTESTINE: ADENOMA, CARCINOMA): active; positive
carcinogen call (Species: RAT, Strain/Sex: F344/MALE, Route: ORAL, Dose: 0, 2000, 5000, 10000 PPM IN DIET FOR UP TO 104 WK (STUDY DURATION: 106 WK), Dose: 0, 2000, 5000, 10000 PPM IN DIET FOR UP TO 104 WK (STUDY DURATION: 106 WK), Tumor Site: Type of Lesion: LIVER: HEPATOCELLULAR ADENOMA, HEPATOCELLULAR CARCINOMA, HEPATOCHOLANGIOCARCINOMA, LARGE INTESTINE: ADENOMA, CARCINOMA;, Tumor Site: Type of Lesion: LIVER: HEPATOCELLULAR ADENOMA, HEPATOCELLULAR CARCINOMA, HEPATOCHOLANGIOCARCINOMA, LARGE INTESTINE: ADENOMA, CARCINOMA): active; positive

Cc1cc(-c2ccccc2C)ccc1NO
carcinogen call (Species: RAT, Strain/Sex: ACI/SEG/MALE, Route: INTRAPERITONEAL, Dose: 0, 50 UMOL/KG BW 2X/WK FOR 10 WK BEGINNING AT 3 D OF AGE (STUDY DURATION: 68 WK), Tumor Site: Type of Lesion: COLON: CARCINOMA): active; positive
carcinogen call (Species: RAT, Strain/Sex: F344/MALE, Route: INTRAPERITONEAL, Dose: 0, 5, 10, 20 MG/KG 1/2 WK FOR 20 WK (STUDY DURATION: 60 WK), Dose: 0, 5, 10, 20 MG/KG 1/2 WK FOR 20 WK (STUDY DURATION: 60 WK), Tumor Site: Type of Lesion: PROSTATE: CARCINOMA, PERITONEUM: TUMOR, COLON: TUMOR, Tumor Site: Type of Lesion: PROSTATE: CARCINOMA, PERITONEUM: TUMOR, COLON: TUMOR): active; positive

CC(C)c1ccccc1
carcinogen call (Species: Mouse, Strain/Sex: B5C3F1/ Female (50/Group), Route: Inhalation, Dose: 0, 125, 250, 500 ppm for 6 hr plus 12 min per d, 5 d/wk, 105 wk (Study duration: 105 wk), Dose: 0, 125, 250, 500 ppm for 6 hr plus 12 min per d, 5 d/wk, 105 wk (Study duration: 105 wk), Tumor Site: Type of Lesion: Lung: Alveolar/bronchiolar adenoma (1/50; 26/50; 36/50; 38/50), Alveolar/bronchiolar carcinoma (3/50, 16/50, 20/50, 34/, Tumor Site: Type of Lesion: Lung: Alveolar/bronchiolar adenoma (1/50; 26/50; 36/50; 38/50), Alveolar/bronchiolar carcinoma (3/50, 16/50, 20/50, 34/): active; positive. authors describe as clear evidence of carcinogenicity based on increas
carcinogen call (Species: Mouse, Strain/Sex: B5C3F1/ Male (50/Group), Route: Inhalation, Dose: 0, 250, 500, 1,000 ppm for 6 hr plus 12 min per d, 5 d/wk, 105 wk (Study duration: 105 wk), Dose: 0, 250, 500, 1,000 ppm for 6 hr plus 12 min per d, 5 d/wk, 105 wk (Study duration: 105 wk), Tumor Site: Type of Lesion: Lung: Alveolar/bronchiolar adenoma (13/50; 31/50; 29/50), Alveolar/bronchiolar carcinoma (9/50, 19/50, 32/50, 33/, Tumor Site: Type of Lesion: Lung: Alveolar/bronchiolar adenoma (13/50; 31/50; 29/50), Alveolar/bronchiolar carcinoma (9/50, 19/50, 32/50, 33/): active; positive. authors describe as clear evidence of carcinogenicity based on increas
carcinogen call (Species: Rat, Strain/Sex: F344/N / Female (50/Group), Route: Inhalation, Dose: 0, 250, 500, 1,000 ppm for 6 hr plus 12 min per d, 5 d/wk, 105 wk (Study duration: 105 wk), Dose: 0, 250, 500, 1,000 ppm for 6 hr plus 12 min per d, 5 d/wk, 105 wk (Study duration: 105 wk), Tumor Site: Type of Lesion: Nose (respiratory epithelium): Adenoma (0/50; 5/48; 4/50; 3/50)): inactive; negative. authors describe as some evidence of carcinogenicity.
carcinogen call (Species: Rat, Strain/Sex: F344/N / Male (50/Group), Route: Inhalation, Dose: 0, 250, 500, 1,000 ppm for 6 hr plus 12 min per d, 5 d/wk, 105 wk (Study duration: 105 wk), Dose: 0, 250, 500, 1,000 ppm for 6 hr plus 12 min per d, 5 d/wk, 105 wk (Study duration: 105 wk), Tumor Site: Type of Lesion: Nose (respiratory epithelium): Adenoma (0/50, 7/50, 18/49, 10/50, Renal tubule: Adenoma (1/50; 4/50; 5/50; 4/50), Renal, Tumor Site: Type of Lesion: Nose (respiratory epithelium): Adenoma (0/50, 7/50, 18/49, 10/50, Renal tubule: Adenoma (1/50; 4/50; 5/50; 4/50), Renal): active; positive. authors describe as clear evidence of carcinogenicity except that test

FCCl
carcinogen call (Species: RAT, Strain/Sex: WISTAR/MALE,FEMALE, Route: GAVAGE, Dose: 300 MG/KG IN CORN OIL 5/WK FOR 52 WK, Tumor Site: Type of Lesion: STOMACH: SQUAMOUS CELL CARCINOMA, FIBROSARCOMA): active; positive

Cc1ccc(N=CN(C)C=Nc2ccc(C)cc2C)c(C)c1
carcinogen call (Species: Mouse, Strain/Sex: B6C3F1/Female, Route: Oral (diet), Dose: 0, 25, 100, 400 ppm in feed for 104 wks, Dose: 0, 25, 100, 400 ppm in feed for 104 wks, Tumor Site: Type of Lesion: Liver: Hepatocellular adenoma/carcinoma (5/80, 1/61, 3/62, 24/56)): active; positive (at highest dose)
carcinogen call (Species: Mouse, Strain/Sex: B6C3F1/Male, Route: Oral (diet), Dose: 0, 25, 100, 400 ppm in feed for 104 wks, Dose: 0, 25, 100, 400 ppm in feed for 104 wks): inactive; negative
carcinogen call (Species: Rat, Strain/Sex: Wistar/Female, Route: Oral (diet), Dose: 0, 15, 50, 200 ppm in feed for 104 wks, Dose: 0, 15, 50, 200 ppm in feed for 104 wks): inactive; negative; purity 97.8 and 99.8%
carcinogen call (Species: Rat, Strain/Sex: Wistar/Male, Route: Oral (diet), Dose: 0, 15, 50, 200 ppm in feed for 104 wks, Dose: 0, 15, 50, 200 ppm in feed for 104 wks): inactive; negative; purity 97.8 and 99.8%

O=C(O)CNCP(=O)(O)O
carcinogen call (Species: RAT, Strain/Sex: WISTAR/FEMALE, Route: ORAL, Dose: 0, 300, 900, 2700 MG/L IN DRINKING WATER FOR 2 YR (STUDY DURATION: 2 YR), Dose: 0, 300, 900, 2700 MG/L IN DRINKING WATER FOR 2 YR (STUDY DURATION: 2 YR)): inactive; negative
carcinogen call (Species: RAT, Strain/Sex: WISTAR/MALE, Route: ORAL, Dose: 0, 300, 900, 2700 MG/L IN DRINKING WATER FOR 2 YR (STUDY DURATION: 2 YR), Dose: 0, 300, 900, 2700 MG/L IN DRINKING WATER FOR 2 YR (STUDY DURATION: 2 YR)): inactive; negative
carcinogen call (Species: Rat, Strain/Sex: Sprague-Dawley/Female (50/Group), Route: Oral, Dose: 0, 2000, 8000, 20,000 ppm of 96.5% glyphosate, isopropylamine salt in diet for 24 mo, study duration 24 mo, Dose: 0, 2000, 8000, 20,000 ppm of 96.5% glyphosate, isopropylamine salt in diet for 24 mo, study duration 24 mo, Tumor Site: Type of Lesion: Adrenal cortex: carcinoma (3/50 in high dose group vs 0 in all other groups)): active; positive. (department of pesticides regulation reviewer describes as a possible
carcinogen call (Species: Rat, Strain/Sex: Sprague-Dawley/Male (50/Group), Route: Oral, Dose: 0, 2000, 8000, 20,000 ppm of 96.5% glyphosate, isopropylamine salt in diet for 24 mo, study duration 24 mo, Dose: 0, 2000, 8000, 20,000 ppm of 96.5% glyphosate, isopropylamine salt in diet for 24 mo, study duration 24 mo): inactive; negative

COc1cc(/C=C/C(=O)O[C@H]2CC[C@]34C[C@]35CC[C@]3(C)[C@@H]([C@H](C)CCC=C(C)C)CC[C@@]3(C)[C@@H]5CC[C@H]4C2(C)C)ccc1O
carcinogen call (Species: MOUSE, Strain/Sex: B6C3F1/FEMALE, Route: ORAL, Dose: 0, 200, 600, 2000 MG/KG/BW A DAY IN DIET FOR 78 WK (STUDY DURATION: 79 WK), Dose: 0, 200, 600, 2000 MG/KG/BW A DAY IN DIET FOR 78 WK (STUDY DURATION: 79 WK)): inactive; negative
carcinogen call (Species: MOUSE, Strain/Sex: B6C3F1/MALE, Route: ORAL, Dose: 0, 200, 600, 2000 MG/KG/BW A DAY IN DIET FOR 78 WK (STUDY DURATION: 79 WK), Dose: 0, 200, 600, 2000 MG/KG/BW A DAY IN DIET FOR 78 WK (STUDY DURATION: 79 WK)): inactive; negative
carcinogen call (Species: RAT, Strain/Sex: F344/FEMALE, Route: ORAL, Dose: 0, 200, 600, 2000 MG/KG/BW/D IN DIET FOR 2 YR (STUDY DURATION: 105 WK), Dose: 0, 200, 600, 2000 MG/KG/BW/D IN DIET FOR 2 YR (STUDY DURATION: 105 WK)): inactive; negative
carcinogen call (Species: RAT, Strain/Sex: F344/MALE, Route: ORAL, Dose: 0, 200, 600, 2000 MG/KG/BW/D IN DIET FOR 2 YR (STUDY DURATION: 105 WK), Dose: 0, 200, 600, 2000 MG/KG/BW/D IN DIET FOR 2 YR (STUDY DURATION: 105 WK)): inactive; negative
